We go through five molecules from patent US4113856A, “Antibiotic mm 13902” (Beecham Group Limited, priority 1974, dated 1978).

SMILES strings stand for the structures. Entries after “also recorded” stand apart in the source; their conditions may differ. Counter-ions that a name gives are not always drawn. Bounds are passed on as bounds.

The test system of data set [1] is E. coli JT417. As to the kind of experiment: MIC by serial dilution in nutrient agar (Table 2). Type of data set: cell-based. To be noted: ampicillin alone.
The subject of data set [2] is E. coli B11. Kind of data set: MIC by serial dilution in nutrient agar (Table 2). Type of data set: cell-based. Conditions: ampicillin alone.
For data set [3], the system named is Klebsiella aerogenes IP282. As to the kind of experiment: MIC by serial dilution in nutrient agar (Table 2). Type of data set: cell-based. Conditions: ampicillin alone.
Data set [4] deals with Proteus mirabilis 247. Kind of data set: MIC by serial dilution in nutrient agar (Table 2). It is filed as cell-based. Conditions: ampicillin alone.
For data set [5], the system named is E. coli JT39. As to the kind of experiment: MIC by serial dilution in nutrient agar (Table 2). Type of data set: cell-based. To be noted: ampicillin alone.
Data set [6] has as its system Proteus mirabilis 889. As to the kind of experiment: MIC by serial dilution in nutrient agar (Table 2). It is filed as cell-based. To be noted: ampicillin alone.
The test system of data set [7] is Staph.aureus (Russell H). As to the kind of experiment: MIC by serial dilution in nutrient agar (Table 2). To be noted: ampicillin alone. Type of data set: cell-based.
Data set [8] deals with Proteus rettgeri R110. As to the kind of experiment: MIC by serial dilution in nutrient agar (Table 2). Type of data set: cell-based. To be noted: ampicillin alone.
Data set [9] relates to Proteus morganii F. Kind of data set: MIC by serial dilution in nutrient agar (Table 2). It is filed as cell-based. To be noted: ampicillin alone.
Data set [10] deals with Staph.aureus (Russell). Kind of data set: MIC by serial dilution in nutrient agar (Table 2). It is filed as cell-based. Conditions: ampicillin alone.
Data set [11] has as its system Klebsiella aerogenes. As to the kind of experiment: synergy with benzylpenicillin. It is filed as cell-based. To be noted: extracts from cellulose thin layer. From the text: (§1) In a further experiment, the two substances were separated on a cellulose thin layer developed with isopropanol:water (8:2) and extracted from the cellulose with phosphate buffer.
The test system of data set [12] is Klebsiella aerogenes. As to the kind of experiment: bioautography zone diameter (Table 4). Type of data set: cell-based. Conditions: TLC cellulose, butanol/isopropyl alcohol/water 7:7:6.
Data set [13] has as its system Staphylococcus aureus(Russell). Kind of data set: bioautography zone diameter (Table 4). It is filed as cell-based. Conditions: TLC cellulose, butanol/isopropyl alcohol/water 7:7:6.
Data set [14] relates to Escherichia coli β-lactamase. As to the kind of experiment: β-lactamase inhibition (in words). Type of data set: biochemical.
Text: as §1

Data set [15] has as its system β-lactamase of Klebsiella aerogenes. As to the kind of experiment: β-lactamase inhibition (in words). It is filed as biochemical.
Data set [16] deals with urease. Kind of data set: enzyme inhibition (general enzyme poison check). Type of data set: biochemical. To be noted: at concentrations in excess of those required to inhibit E. coli β-lactamase.
Data set [17] concerns monoamine oxidase. As to the kind of experiment: enzyme inhibition (general enzyme poison check). It is filed as biochemical. Conditions: at concentrations in excess of those required to inhibit E. coli β-lactamase.
Data set [18] deals with Staphylococcus aureus(Oxford). Kind of data set: bioautography zone diameter (Table 4). It is filed as cell-based. Conditions: TLC cellulose, butanol/isopropyl alcohol/water 7:7:6.
Data set [19] has as its system trypsin. As to the kind of experiment: enzyme inhibition (general enzyme poison check). Type of data set: biochemical. To be noted: at concentrations in excess of those required to inhibit E. coli β-lactamase.
Data set [20] has as its system chymotrypsin. Kind of data set: enzyme inhibition (general enzyme poison check). Type of data set: biochemical. To be noted: at concentrations in excess of those required to inhibit E. coli β-lactamase.
Data set [21] concerns Escherichia coli, Klebsiella aerogenes, Proteus mirabilis, Proteus morganii and Staphylococcus aureus Russell. Kind of data set: synergy with ampicillin (in words). Type of data set: cell-based, bacteria (various species). Conditions: mixed with ampicillin.
Data set [22] deals with various species including strains of Staphylococcus aureus, Bacillus subtilis, Escherichia coli, Klebsiella aerogenes, Proteus mirabilis. Kind of data set: antibacterial activity against various species (in words). Conditions: sodium salt. Type of data set: cell-based, bacteria (various species).
Data set [23] concerns dopa decarboxylase. As to the kind of experiment: enzyme inhibition (general enzyme poison check). It is filed as biochemical. To be noted: at concentrations in excess of those required to inhibit E. coli β-lactamase.
Data set [24] deals with Enterobacter aerogenes. Kind of data set: bioautography zone diameter (Table 4). Type of data set: cell-based. Conditions: TLC cellulose, butanol/isopropyl alcohol/water 7:7:6.
The test system of data set [25] is Bacillus subtilis. Kind of data set: bioautography zone diameter (Table 4). Type of data set: cell-based. To be noted: TLC cellulose, butanol/isopropyl alcohol/water 7:7:6.
The subject of data set [26] is Proteus morganii. Kind of data set: bioautography zone diameter (Table 4). Type of data set: cell-based. Conditions: TLC cellulose, butanol/isopropyl alcohol/water 7:7:6.
In data set [27] the test system is Escherichia coli 311. Kind of data set: bioautography zone diameter (Table 4). Type of data set: cell-based. Conditions: TLC cellulose, butanol/isopropyl alcohol/water 7:7:6.
For data set [28], the system named is B. subtilis, Staphylococcus aureus, Escherichia coli, Salmonella typhimurium, Proteus mirabilis, Proteus morganii and Klebsiella aerogenes. As to the kind of experiment: detection by bioautography after TLC on cellulose (in words). It is filed as cell-based, bacteria (various species).
Data set [29] relates to carbonic anhydrase. Kind of data set: enzyme inhibition (general enzyme poison check). It is filed as biochemical. Conditions: at concentrations in excess of those required to inhibit E. coli β-lactamase.
The test system of data set [30] is Escherichia coli 10418. Kind of data set: bioautography zone diameter (Table 4). It is filed as cell-based. To be noted: TLC cellulose, butanol/isopropyl alcohol/water 7:7:6.
Data set [31] concerns β-lactamase of Staphylococcus aureus. As to the kind of experiment: β-lactamase inhibition (in words). Type of data set: biochemical.
Data set [32] can be described thus: activity in arbitrary units per mg. Conditions: Example 3. How it is done: The material produced above was arbitrarily assigned an activity of 340 l/ml. Assays were determined as described in Description 3.
Data set [33] in a line: stability. Type of data set: physicochemical.
Data set [34] is described as follows: solubility. To be noted: sodium salt.

Consider `CC1(C)S[C@@H]2[C@H](NC(=O)[C@H](N)c3ccccc3)C(=O)N2[C@H]1C(=O)O` [Ampicillin], for which the minimum inhibitory concentration is listed as 250 in [1]; above 500 in data set [2]; 50 in data set [3]; above 500 in [4]; above 500 in [5]; above 500 in data set [6]. In addition, the minimum inhibitory concentration in data set [7] is above 500; in data set [8], 250; in data set [9] it was 50; in data set [10], 250.
Consider `CC(=O)N/C=C/[S+]([O-])C1=C(C(=O)O)N2C(=O)C(C(C)OS(=O)(=O)O)C2C1` (centres unmarked) [MM 4550A], for which the synergy with benzylpenicillin result in data set [11] is given as “shown to be synergistic with benzylpenicillin”. The “Zone Diameter on Bioautography” value in data set [12] stood at 20.0 mm; in data set [13] it was 12.0 mm; in data set [18], 13.0 mm; in [24] it was 6.5 mm; in data set [25], 24.0 mm; in data set [26], 16.0 mm. The “Zone Diameter on Bioautography” value in data set [27] is reported as 17.5 mm; in data set [30] it was 20.0 mm. The β-lactamase inhibition entry in data set [14] was “possesses enzyme inhibitory activity; also recorded: shown to be inhibitors”; in data set [15], “possesses enzyme inhibitory activity”; in [31], “possesses enzyme inhibitory activity”. The inhibition of urease result in data set [16] is given as “does not inhibit”. Also, the “inhibition of monoamine oxidase” value in [17] is reported as “does not inhibit”. The inhibition of trypsin entry in data set [19] is given as “does not inhibit”. In data set [20], the inhibition of chymotrypsin entry is “does not inhibit”. The synergy with ampicillin entry in [21] is recorded as “synergyses its activity”. Moreover, the antibacterial activity result in data set [22] is “possesses antibacterial activity”. For the same molecule, the “inhibition of dopa decarboxylase” value in data set [23] is recorded as “does not inhibit”. Also, the detection by bioautography entry in [28] is “may be detected by bioautography on a variety of organisms”. For the same molecule, the “inhibition of carbonic anhydrase” value in data set [29] is listed as “does not inhibit”.
For `CC(=O)NC=CSC1=C(C(=O)O)N2C(=O)C(C(C)OS(=O)(=O)O)C2C1` (centres unmarked) [di-sodium salt of MM 13902], in [32] (di-sodium salt after cellulose chromatography, yellowish powder), the activity is recorded as 73,000 units/mg.
For `CC(=O)NC=CSC1=C(C(=O)O)N2C(=O)C(C(C)OS(=O)(=O)O)C2C1` (centres unmarked) [monobasic salts of MM 13902], the stability result in [33] was “not sufficiently stable”.
For `CC(=O)N/C=C/SC1=C(C(=O)O)N2C(=O)C(C(C)OS(=O)(=O)O)C2C1` (centres unmarked) [MM 13902], in data set [11], the synergy with benzylpenicillin result is “shown to be synergistic with benzylpenicillin”. In addition, in data set [34], the “solubility in chloroform, diethylether and hydrocarbons” value is on record as “substantially insoluble”. Besides, in data set [34], the solubility in methanol entry is reported as “soluble”. The solubility in water result in [34] is listed as “highly soluble”. Also, the “Zone Diameter on Bioautography” value in [12] is listed as 20.0 mm; in data set [13], 4.0 mm; in data set [18] it was 4.0 mm; in data set [24], “No Zone”. Further, in data set [32] (partially purified salt, brown solid), the activity is listed as 37,000 units/mg. The β-lactamase inhibition result in data set [14] is “shown to be inhibitors”. Moreover, the synergy with ampicillin entry in data set [21] is recorded as “synergizes its activity”. In addition, the antibacterial activity entry in data set [22] was “possessed antibacterial activity”. In data set [33], the stability entry is reported as “tends to be unstable when in the unsalted acid form; also recorded: not sufficiently stable”. The detection by bioautography entry in data set [28] is on record as “may be detected by bioautography on a variety of organisms”.
